Assay results: patent US7919510B2 (priority 2005, dated 2011)
pIC50: −log10 of the molar value.

What was measured:
[1] = biological target: human endothelial constitutive NOS (eNOS) (Homo sapiens, UniProt P29474); experiment: biochemical; conditions: read-out: h-eNOS IC50
[2] = human, open pilot study; cited from earlier work

pIC50 [1] | SMILES | patients with a reduction in the frequency of migraine attack of 50% [2] [%]
5.18 | CN1CCC(n2cnc3cc(NC(=N)c4cccs4)ccc32)CC1 [Compound 59] | 
 | C/C1=C2/[N-][C@H]([C@H](CC(N)=O)[C@@]2(C)CCC(=O)NC[C@@H](C)OP(=O)([O-])O[C@H]2[C@@H](O)[C@@H](n3cnc4cc(C)c(C)cc43)O[C@@H]2CO)[C@]2(C)N=C(/C(C)=C3N=C(/C=C4N=C1[C@@H](CCC(N)=O)C\4(C)C)[C@@H](CCC(N)=O)[C@]\3(C)CC(N)=O)[C@@H](CCC(N)=O)[C@]2(C)CC(N)=O.[Co+3].[OH-] [hydroxycobalamin] | 53
